We go through 30 molecules from PubChem BioAssay AID179 (DTP/NCI, 2004).

The source made the active and inactive calls.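 How the source made its calls: active means compounds giving half or more protection of infected cells from virus-caused growth loss, again on retest; inactive means the rest.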

In this assay the test system is CEM cells HIV-1 protection, formazan growth assay. As to the kind of experiment: NCI AIDS Antiviral Assay. As to conditions: for IC50: measured here: growth of uninfected CEM cells. The gist of the method: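 CEM (human) cells, HIV-1 infected vs uninfected, 5-point dosing, formazan growth read-out. Retest threshold 50% protection.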

For `CCOC(=O)NC1C2CC(=O)OC(O2)C1OC(C)=O` (stereo not drawn), the EC50 was above 912 µM and the half-maximal inhibitory concentration (IC50) is 39.8 µM. Consider `Nc1ccc2oc3cccc(N)c3c(=O)c2c1`, for which the EC50 is above 22.9 µM and the IC50 was above 22.9 µM.

`COc1ccc2cc3[nH]c(=O)cc(O)c3cc2c1OC`: the outcome was inactive. For the molecule `[Ni].c1c[nH]cn1.c1c[nH]cn1.c1c[nH]cn1.c1c[nH]cn1.c1c[nH]cn1.c1c[nH]cn1`, the EC50 is above 66.1 µM and the half-inhibitory concentration (IC50) was above 66.1 µM. For `O=C(Nc1nc(C23CC4CC(CC(C4)C2)C3)cs1)c1cc2c(ccc3ccccc32)oc1=O`, the EC50 is above 200 µM and the 50% inhibitory concentration (IC50) was above 200 µM. Regarding `N#C/C(=C\c1cc(O)c(O)c([N+](=O)[O-])c1)C(=O)NCCCNC(=O)/C(C#N)=C/c1cc(O)c(O)c([N+](=O)[O-])c1`, the EC50 was above 200 µM and the concentration for half-maximal inhibition (IC50) was found to be 72.4 µM. With `C[C@@H]1CC(O)C2(O)[C@@]13C[C@@H](OC(=O)[C@@H]3O)[C@](C)(O)[C@@]21COC1=O` (stereo partly drawn), the result was inactive. For `O=C1/C(=C/c2ccc(O)c([N+](=O)[O-])c2)CCC/C1=C\c1ccc(O)c([N+](=O)[O-])c1`, the EC50 was above 200 µM and the 50% inhibitory concentration (IC50) was 11.7 µM. On to `C=CCn1c(=O)c2ccccc2[n+]2c(-c3cccc([N+](=O)[O-])c3)csc12`, for which the EC50 was above 200 µM and the concentration for half-maximal inhibition (IC50) was above 200 µM.

Turning to `O=C1C=C[C@@]23CC1C(O)C[C@H]2C=Cc1ccccc13` (stereo partly drawn), the EC50 was above 102 µM and the IC50 was above 102 µM. As to `Clc1cc2c(c3ncccc13)OCN(Cc1ccccc1)C2`, the EC50 is above 200 µM and the IC50 came to 1.02 µM.

Consider `COC(=O)C1OC2(CCCC3CC32)O[C@H]1C(=O)OC` (stereo partly drawn), for which the result was inactive.

As to `O=C1CCC2SC1CCC2=O`, the EC50 is above 200 µM and the 50% inhibitory concentration (IC50) is above 200 µM. As for `c1ccc(Nn2c(CCCCCCCCc3nnc(COc4ccccc4)n3Nc3ccccc3)nnc2COc2ccccc2)cc1`, the EC50 was above 2 µM and the IC50 was above 2 µM. As for `O=C(Nc1cccnc1)c1ccccc1[Se][Se]c1ccccc1C(=O)Nc1cccnc1`, the concentration for a half-maximal effect (EC50) is 3.24 µM and the 50% inhibitory concentration (IC50) is 6.92 µM. On the same counts, the results for `COC(=O)C1=C(C(=O)OC)C(OO)(c2ccccc2)OC1=O` (stereo not drawn) are above 200 µM and above 200 µM. For `O=C(O)C1CCCCC1c1c2ccc(=O)c(O)c-2oc2c(O)c(O)ccc12` (stereo not drawn), in that order: 17 µM and 83.2 µM. On the same counts, the results for `C/C=C1\Oc2ccc(OC)cc2S1(=O)=O` are 17 µM and 31.6 µM. As for `Cc1cc(=O)[nH]c(NNC(C#N)c2ccc([N+](=O)[O-])cc2)n1` (stereo not drawn), the EC50 is above 63.1 µM and the IC50 is above 63.1 µM. Consider `CCCCC(C)CCC(=O)C1=C(O)C(CC(=O)O)OC1=O` (stereo not drawn), for which the EC50 is above 83.2 µM and the IC50 is above 83.2 µM.

As for `CC(C)(C)C1(O)Cc2ccccc2C(=O)O1` (stereo not drawn), the EC50 was above 309 µM and the 50% inhibitory concentration (IC50) is above 309 µM. Take `O=C(C1OC1c1cccc([N+](=O)[O-])c1)C12CC3CC(CC(C3)C1)C2` (stereo not drawn): the EC50 is above 200 µM and the IC50 was 3.47 µM.

As to `O=C(NCC(O)CNC(=O)C(F)(F)F)C(F)(F)F`, the outcome was inactive. For the molecule `O=C(O)N1CCc2c(sc3ccccc23)C1`, the EC50 was above 95.5 µM and the half-inhibitory concentration (IC50) was above 95.5 µM. Regarding `O/N=C1\CC2(N3CCOCC3)CCC1(c1ccccc1)CC2`, the outcome was inactive. Same read-out and setting: under `CN1CC[C@]2(C)c3cc(O)ccc3CC3CCCC1C32C` (stereo partly drawn) stands “inactive”. For the molecule `CC1=NC(C)=C(/C(C)=N/NC(=O)c2ccccc2O)C(C)/C1=C(/C)NNC(=O)c1ccccc1O` (stereo not drawn), the EC50 is above 186 µM and the IC50 was 8.71 µM.

Take `NC12CCC(CC1=O)C2` (stereo not drawn): the EC50 is above 200 µM and the IC50 is above 200 µM.

With `O=C(O)CCC1NC(/C(=C/c2ccccc2O)NC(=O)c2ccccc2)OC1=O` (stereo not drawn), the EC50 is above 151 µM and the IC50 is above 151 µM. In the case of `COc1ccc(-c2noc(=O)c3ccccc23)cc1`, the result was inactive.
